Columns and labels:
[1] = test system: GDF8 signaling (GDF pSMAD, MPC11); test: AlphaScreen SureFire SMAD3 (p-Ser423/425) assay, inhibition of GDF8 signaling; assay type: cell-based; conditions: Mus musculus, MPC-11, p-SMAD-3 (Ser423/425) in cell lysate after GDF8 stimulation
[2] = test system: TGF-β signaling (TGF-β pSMAD, MPC-11); test: AlphaScreen SureFire SMAD3 (p-Ser423/425) assay, inhibition of TGF-β signaling; assay type: cell-based; conditions: Mus musculus, p-SMAD-3 (Ser423/425) in cell lysate after TGF-β stimulation
Procedure, shortened: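 Phosphorylation of endogenous SMAD-3 at Ser423/425 was quantified with an AlphaScreen SureFire assay. Cells were exposed to compound for about 10 minutes, stimulated with TGF-β, and lysed in 1× Lysis Buffer. Lysate (5 μL) was combined with Reaction/Activation buffer plus Acceptor beads for 2 hours, then Donor beads for 1½ hours, and read on a plate reader.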

IC50 [1] [nM]	IC50 [2] [nM]	Compound
329	1490	COc1cccc(-c2nn3c(c2-c2ccc4nccn4c2)OCC3)c1 [Compound 73, 7-(Imidazo[1,2-a]pyridin-6-yl)-6-(3-methoxyphenyl)-2,3-dihydropyrazolo[5,1-b]oxazole]
336	1340	Fc1cccc(-c2nn3c(c2-c2ccc4[nH]ncc4c2)CCC3)c1 [Compound 77, 5-(2-(3-Fluorophenyl)-5,6-dihydro-4H-pyrrolo[1,2-b]pyrazol-3-yl)-1H-indazole]
373	2950	Cc1cccc(-c2nn3c(c2-c2ccc4ncccc4c2)OCC3)c1 [Compound 51, 7-(Quinolin-6-yl)-6-(m-tolyl)-2,3-dihydropyrazolo[5,1-b]oxazole]
296	738	Fc1ccc(-c2nn3c(c2-c2ccc4ncnn4c2)CCC3)c(F)c1Cl [Compound 160, 6-(2-(3-Chloro-2,4-difluorophenyl)-5,6-dihydro-4H-pyrrolo[1,2-b]pyrazol-3-yl)-[1,2,4]triazolo[1,5-a]pyridine]
46.6	139	Fc1ccc(Cl)cc1-c1nn2c(c1-c1ccc3ncccc3c1)CCC2 [Compound 176, 6-(2-(5-Chloro-2-fluorophenyl)-5,6-dihydro-4H-pyrrolo[1,2-b]pyrazol-3-yl)quinoline]
98.5	659	Fc1cc(F)c(-c2nn3c(c2-c2ccc4nccnc4c2)CCC3)cc1F [Compound 118, 6-(2-(2,4,5-Trifluorophenyl)-5,6-dihydro-4H-pyrrolo[1,2-b]pyrazol-3-yl)quinoxaline]
